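How tested: cells in 96-well plates exposed to compound for 48 hours at five concentrations. TGI denotes the concentration required for complete inhibition of growth.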
Key:
Assay in all cases: inhibition of tumour cell growth, NCI panel, 48 h
A549 NSCLC = tested on: A549 NSCLC
ACHN renal = tested on: ACHN renal
HCC-2998 colon = tested on: HCC-2998 colon
M14 melanoma = tested on: M14 melanoma
MALME-3M melanoma = tested on: MALME-3M melanoma
MDA-MB-231 breast = tested on: MDA-MB-231 breast
PC-3 prostate = tested on: PC-3 prostate
SF-295 CNS = tested on: SF-295 CNS
SN12C renal = tested on: SN12C renal
SNB-19 CNS = tested on: SNB-19 CNS
T-47D breast = tested on: T-47D breast

| Compound | TGI (A549 NSCLC) [µM] | TGI (ACHN renal) [µM] | TGI (HCC-2998 colon) [µM] | TGI (M14 melanoma) [µM] | TGI (MALME-3M melanoma) [µM] | TGI (MDA-MB-231 breast) [µM] | TGI (PC-3 prostate) [µM] | TGI (SF-295 CNS) [µM] | TGI (SN12C renal) [µM] | TGI (SNB-19 CNS) [µM] | TGI (T-47D breast) [µM] |
| --- | --- | --- | --- | --- | --- | --- | --- | --- | --- | --- | --- |
| COc1ccc(C2CCc3c(cnc4nc(N)nc(N)c34)C2)cc1 (centres undefined) | > 100 | 51 | > 100 | > 100 | > 100 | > 100 | > 100 | > 100 | > 100 | > 100 | 95.3 |
| CCOC(=O)CCN1C(=O)c2c(NC(=O)C(=O)O)cccc2S1(=O)=O | > 100 | > 100 | > 100 | > 100 | > 100 | > 100 | > 100 | > 100 | > 100 | > 100 | > 100 |
| COc1ccc2c(-c3csc(-c4c[nH]c5ccccc45)n3)c[nH]c2c1 | 53.7 | 16.9 | 30.4 | 53.1 | 32.1 | > 37.6 | 39.9 | 35.2 | 35.9 | > 100 | > 100 |
| O=C1CCc2c(sc3ncnc(Nc4cccc(Br)c4)c23)C1 | 24.5 | 8.04 | 15 | 13.9 | 4.85 | 11.5 | 10.3 | 15.3 | 12.7 | 19.2 | 6.17 |
| c1ccc2c(c1)[C@@H]1O[C@@H]1[C@@]13O[C@@]21[C@H]1O[C@H]1c1ccccc13 | 47 | 28.9 | 35.1 | 33.6 | 26.3 | 33.6 | 30 | 30.1 | 38.2 | 40.1 | 57.8 |
| CC(=O)c1c2c(cc3c1CCC3)CCC2 | > 100 | > 100 | > 100 | > 100 | > 100 | > 100 | > 100 | > 100 | > 100 | > 100 | 46.8 |
| S=C1NNC(=S)NN1 | > 1 | > 1 | > 1 | > 1 | > 1 | > 1 | > 1 | 0.486 | 0.354 | > 1 | > 1 |
| CN1C(=O)[C@](C)(Cc2ccc(F)cc2)N(C(=O)OC(C)(C)C)[C@@H]1C(C)(C)C | > 100 | > 100 | 76.2 | > 100 | > 100 | > 100 | > 100 | 50.7 | 32.4 | > 100 | 90.1 |
| O=C(O)CCC(NC(=O)/C(=C/c1ccccc1)NC(=O)c1ccccc1)C(=O)O (centres undefined) | > 100 | > 100 | > 100 | > 100 | > 100 | > 100 | > 100 | > 100 | > 100 | > 100 | > 100 |
| Fc1sc2c(c1F)C1CCC2C1 (centres undefined) | > 100 | > 100 | > 100 | > 100 | > 100 | > 100 | > 100 | > 100 | > 100 | > 100 | > 100 |
| CC1=NNC(N)=N/C1=C\C(Sc1ccc(Cl)cc1)c1ccc(Cl)cc1Cl (centres undefined) | 59.4 | 29.1 | 17 | 31.8 | 28.8 | > 52.3 | 26.4 | 52.9 | 62.4 | 32.8 | 38.8 |
| CO/C=C(/C(=O)OC)c1ccccc1[C@H]1C[C@@H]1c1ccccc1 | 83.8 | 60.6 | 76.2 | 68.8 | 41.3 | > 100 | > 100 | 98.2 | 90.3 | > 100 | 63.1 |
| CC(=O)OCC12C(OC(C)=O)C[C@@H](C)C3(CC(c4ccoc4)OC3=O)C1CCC(OC(C)=O)C21CO1 (some centres undefined) | > 100 | > 100 | > 100 | > 100 | > 100 | > 100 | > 100 | > 100 | > 100 | > 100 | > 100 |
| O=C(N(C1=CCCC1)N(c1ccccc1)c1ccccc1)C(F)(F)F | 98.4 | 38.8 | 33.8 | 74.5 | 14.4 | 34.3 | > 100 | 77 | 78.7 | > 100 | 65.8 |
| O=C1CSC(c2cc3cc(Br)ccc3nc2Cl)N1c1ccc(F)c(Cl)c1 (centres undefined) | > 50 | > 50 | > 50 | > 50 | > 50 | > 50 | > 50 | > 50 | > 50 | > 50 | > 50 |
| Cc1cc(S(=O)(=O)Nc2n[nH]c(N)n2)c(S)cc1Cl | > 10 | > 10 | > 10 | > 10 | > 10 | > 10 | > 10 | > 10 | > 10 | > 10 | > 10 |
| CC1CC2OC(=N)C1(C#N)C2(C#N)C#N (centres undefined) | > 100 | > 100 | 34.4 | > 100 | 48.9 | 38.4 | 71.7 | > 100 | 33.6 | > 100 | 97.4 |
| O=C(Nc1ccccc1C(=O)O)C(=Cc1ccccc1O)NC(=O)c1ccccc1 | > 100 | > 100 | > 100 | > 100 | > 100 | > 100 | > 100 | > 100 | > 100 | > 100 | > 100 |
| Oc1[nH]c2ccccc2c1N=NC(=S)NCc1ccccn1 | 13.7 | 2.25 | 16.5 | 4.89 | 17.9 | 20.8 | 17.5 | 18 | 14.5 | 15.2 | 21.4 |

Reference: PubChem BioAssay (NCI)
